Data as given in patent US12589103B2, “Antimicrobial and antiviral effects of C2-C7 alkyl boronic acids” (CORNELL UNIVERSITY, priority 2019, dated 2026).
Entries after “also recorded” stand apart in the source; their conditions may differ.

Legend:
[1] = system: diarrheagenic E. coli and APEC; assay: Growth of diarrheagenic and APEC E. coli in LB media; assay type: cell-based; settings: 30 mM
Method: (§1) The control sample contained 40 mM NaCl.
Diarrheagenic E. coli pathogroups differ by their preferential host colonization sites, virulence mechanisms, and clinical symptoms.

[2] = system: AIEC and cancer associated E. coli; assay: Soft agar motility assay, E. coli; assay type: cell-based; settings: 10 h, AIEC NC101, 541-1, cancer associated E. coli
Method: The ability of ABA C1-3 and BA to impact the motility of E. coli and Salmonella was evaluated using sloppy agar treated with and without BA and C1-C3 alkyl boronic acids. Motility is strongly linked to the virulence phenotype of these bacterial strains. E. coli was grown overnight at 37° C. in LB broth. Soft agar plates (1% tryptone, 0.5% NaCl, 0.25% agar) were prepared the day before the assay was carried out. Sterile NaCl (control), boric or boronic acid stock solution was added into the agar right before pouring the plates. The overnight cultures of E. coli were transferred (3 μl) on to the center of each plate, followed by incubation of the plates at 37° C. for 10 h. E. coli motility was quantified by measuring the diameter of the circular swarming area formed by the growing motile bacteria.

[3] = 8-week toxicity study in mice, drinking water; assay type: in vivo, C57/B18 mice; settings: mouse, in vivo
Method: The toxicity of boric and ethylboronic acids were examined with C57/B18 mice. At concentrations of 0, 10, 20, and 40 mM, the two chemicals were given to each group (6 mice) in drinking water. The body weight of each mouse was recorded weekly for 8 weeks, and fecal samples were also collected weekly for 16s sequencing. All animals were sacrificed at the end of 8th week. The length of whole intestine and ileum of each mouse was measured, and sections of the intestine (i. e. small intestine, ileum, cecum, and large intestine) were taken for histopathological and FISH analysis. Fecal samples were used for 16s and lipocalin analysis.
For lipocalin analysis, mouse fecal pellets were collected and frozen at −80 C during toxicity study. To determine lipocalin activity fecal pellets were diluted in microfuge tubes 1/30 with 0.1% Tween20/PBS and vortexed for 20 min at maximum speed. Undissolved particles were removed by centrifuging at 12,000 rpm for 10 min at 4 C. Supernatant was removed and placed into a clean microfuge tube. Lipocalin activity was determined using Mouse Lipocalin-2/NGAL DuoSet ELISA Kit (R&D Systems, DY1857) per manufacturer's instructions.

[4] = system: AIEC E. coli; settings: complex media lacking ethanolamine or fucose
[5] = DSS induced colitis in mice; assay type: in vivo, C57BL mice; settings: 40 mM in drinking water after DSS (3%)
Method: On the basis of favorable in vivo toxicity tests, the ability of BA and EBA to reduce the severity of inflammation in murine models of microbially driven IBD was tested. The effect of BA and EBA (40 mM) on intestinal inflammation was evaluated in mice with dextran sodium sulfate (“DSS”) induced colitis. The DSS model has a complex etiopathogenesis that involves host-immune and inflammatory responses and the enteric microbiome BA To test their protecting ability to the gastrointestinal tract, boric and ethylboronic acid were given to C57BL mice at 40 mM concentration respectively in drinking water after DSS (3%) treatment. Body weight and fecal samples were taken before and after 6-day treatment. At the 6th day, all mice were euthanized for gross necropsy and histopathology. Intestinal sections were collected and embedded for pathological and FISH analysis. Fecal samples were used for 16s and lipocalin analysis.

[6] = system: AIEC E. coli (541-1, LF82) virulence genes; assay: Virulence gene expression of AIEC (qRT-PCR); assay type: cell-based; settings: 30 mM
Method: Total RNA was extracted using the Qiagen RNAProtect-RNeasy Kit per manufacturer's protocol. Total RNA was treated with TURBO DNA-Free Kit (Ambion), followed by a two-step qRT-PCR analysis, using Qiagen's QuantiTect Reverse Transcription Kit and QuantiNova SYBR Green PCR Kit. Each qPCR reaction contained 1 μl of cDNA, 0.7 μl of each forward and reverse primers (10 μM), 5 μL of 2× SYBR Green Master Mix, 1 μl of QN ROX Reference Dye and […] of nuclease-free water to make the total volume of 10 μl. The reaction was run with ABI7000 (Applied Biosystems). […] The relative change of a targeted gene expression was calculated by using the equation RQ=2^−ΔΔCT.

[7] = system: nF-κB; assay: E. coli induced nF-κB activation in HEK-Blue KD-TLR5 cells (SEAP reporter); assay type: cell-based; settings: m.o.i 20, SEAP at 24 h
Method: HEK-Blue KD-TLR5 cells were used to detect the promotor activation of nF-κB by E. coli infection with or without boric or boronic acid treatment. nF-κB is the prototypical transcription factor for pro-inflammatory cytokines in epithelium. Briefly, cells were seeded in 96-well plates at a density of 5×10^4 cells per well. E. coli was diluted into fresh cell medium containing either NaCl (Control), boric or boronic acid at an m.o.i of 200 as 10× inocula, followed by addition of this inoculum (10 μl) into each well containing 100 μl of medium for a final m.o.i of 20. At 3 h post infection, the cell medium was carefully removed from each well, and replaced with 100 μl of fresh medium containing gentamycin (200 μg mL^−1). At 24 h post infection, the spent medium was collected, and centrifuged at 12,000 r.p.m. for 5 min to remove any particulate matter. QUANTI-Blue Kit (InvivoGen, San Diego, CA, USA) was used to detect the reporter protein SEAP (secreted alkaline phosphatase) following the manufacturer's instructions.

[8] = system: AIEC in murine macrophage J774A.1 cells; assay: Uptake and survival of AIEC in J774A.1 macrophages; assay type: cell-based, E. coli
[9] = system: Feline Infectious Peritonitis Virus (FIPV) Black (TN-406); assay: FIPV replication and syncytium formation, immunofluorescence; assay type: cell-based, Feline Coronavirus type I; settings: 10, 20, 30, 40 mM; Feline Lung cells, 18 h post-infection
[10] = system: Listeria monocytogenes; assay: Bacterial growth panel, Listeria; assay type: cell-based
Method: as §1
Growth of bacteria with or without addition of C2-C8 C10, and C12 alkyl boronic acids, BA, or FMPBA was monitored by readings at OD600. […] The area under the curve (“AUC”) of the growth curve was calculated and the results were expressed as AUC+test compound:AUC−test compound.

[11] = system: Gram Positive aerobes and probiotic species (Lactobacillus, Bifidobacteria); assay: Bacterial growth panel, impact on non-target species (selectivity); assay type: cell-based; settings: for selectivity against Probiotic spp: compared with BA
[12] = system: enteric pathogens (E. coli, Salmonella, Listeria monocytogenes, Klebsiella); assay: Bacterial growth panel, OD600 growth-curve AUC ratio (heat map); assay type: cell-based; settings: for antibacterial activity / potency against enteric pathogens (growth, AUC+test compound:AUC−test compound): 40 mM (BA, EBA, PBA), 20 mM (BBA), 10 mM (PeBA), 5 mM (HBA, SBA), 1 mM (OBA), 0.5 mM (DBA), 2 mM (DoDBA), 20 mM (FMPBA), 24-48 hrs; for selectivity for Gram Negative enteropathogens: growth panel
[13] = system: Feline Lung cells; assay: Cytotoxicity in FIPV infected Feline Lung cells
[14] = system: FIPV; settings: known drugs; cited from earlier work
[15] = system: Henle-407 cells; settings: higher concentrations
[16] = system: probiotic Lactobacillus spp; assay: Growth of probiotic Lactobacillus strains; settings: three Lactobacillus strains

OB(O)O [BA, Boric acid, reference compound]
inhibition of growth of diarrheagenic and APEC E. coli [1]: have activity versus the diarrheagenic E. coli and APEC that varies by pathogroup | motility of E. coli [2]: had less impact | fecal 16S profiles [3]: not significantly different from control mice | suppression of AIEC growth in complex media [4]: effective in suppressing AIEC growth | colon length in DSS colitis versus control mice [5]: significantly different | fecal lipocalin levels in DSS colitis versus control mice [5]: significantly different | intestinal bleeding in DSS colitis [5]: observed | body weight in DSS colitis ([5]; 6-day treatment): reduced | pduC expression in 541-1 [6]: Upregulation | pduC expression in LF-82 [6]: Upregulation | induction of nF-κB by E. coli [7]: reduced the induction of nF-κB by E. coli | survival of AIEC in J774A.1 macrophages ([8]; 30 mM during infection, 24 h post infection): inhibited the survival | uptake of AIEC by J774A.1 macrophages ([8]; 30 mM, 1 h): inhibited the uptake | replication and syncytium formation of FIPV [9]: able to inhibit replication and syncytium formation

CCCCB(O)O [BBA, butyl boronic acid]
selectivity of activity against Listeria monocytogenes [10]: selectivity apparent | selectivity against Probiotic spp [11]: more selective than BA | antibacterial activity / potency against enteric pathogens (growth, AUC+test compound:AUC−test compound) [12]: high potency vs enteropathogens while somewhat sparing probiotic species | selectivity for Gram Negative enteropathogens [12]: highest | cytotoxicity in antiviral assay [13]: Cytotoxicity was observed | replication and syncytium formation of FIPV [9]: inhibited replication and syncytium formation of FIPV in infected cells; also recorded: antiviral activity was observed at lower doses without cytotoxicity

CCCCCCCCCCB(O)O [DBA, decyl boronic acid, reference compound]
antibacterial activity / potency against enteric pathogens (growth, AUC+test compound:AUC−test compound) [12]: marked decrease in antibacterial activity | antibacterial activity / potency against enteric pathogens (growth, AUC+test compound:AUC−test compound) ([12]; listed as C10): much less potency than C2-C7 alkyl boronic acids

Cc1ccc(B(O)O)c(F)c1 [FMPBA, 2-fluro-4-methlyphenylboronic acid, reference compound]
selectivity: impact on Gram Positive aerobes and probiotic species ([11]; same concentrations as growth panel): not selective and killed more Gram Positive aerobes and probiotic species than C2-C7 alkyl boronic acid compounds; also recorded: minimally selective | antibacterial activity / potency against enteric pathogens (growth, AUC+test compound:AUC−test compound) [12]: more generalized and potent antibacterial activity than C2-C7 alkyl boronic acid compounds; also recorded: bacteriocidal

N#C[C@@]1(c2ccc3c(N)ncnn23)O[C@H](CO)[C@@H](O)[C@H]1O [GS-441524]
efficacy against FIPV [14]: some efficacy against FIPV

CCCCCCB(O)O [HBA, hexyl boronic acid]
selectivity of activity against Listeria monocytogenes [10]: selectivity apparent | selectivity against Probiotic spp [11]: more selective than BA | cytotoxicity in Henle cells [15]: cytotoxic at higher concentrations | antibacterial activity / potency against enteric pathogens (growth, AUC+test compound:AUC−test compound) [12]: high potency vs enteropathogens while somewhat sparing probiotic species | selectivity for Gram Negative enteropathogens [12]: highest | cytotoxicity in antiviral assay [13]: Cytotoxicity was observed | replication and syncytium formation of FIPV [9]: inhibited replication and syncytium formation of FIPV in infected cells; also recorded: antiviral activity was observed at lower doses without cytotoxicity

CB(O)O [MBA, methyl boronic acid, reference compound]
growth of probiotic Lactobacillus spp [16]: do not suppress growth | motility of E. coli [2]: had less impact

CCCCCCCCB(O)O [OBA, octyl boronic acid, reference compound]
antibacterial activity / potency against enteric pathogens (growth, AUC+test compound:AUC−test compound) [12]: marked decrease in antibacterial activity | antibacterial activity / potency against enteric pathogens (growth, AUC+test compound:AUC−test compound) ([12]; listed as ABA C8): much less potency than C2-C7 alkyl boronic acids

CCCCCB(O)O [PeBA, pentyl boronic acid]
cytotoxicity in Henle cells [15]: cytotoxic at higher concentrations

CCCCCCCB(O)O [SBA, heptyl boronic acid]
selectivity for Gram Negative enteropathogens [12]: highest
